Assay results published in ChEMBL document CHEMBL3627599, “The antioxidant properties of salicylate derivatives: A possible new mechanism of anti-inflammatory activity” (Bioorg Med Chem Lett, 2015).

test: Antioxidant activity assessed as DPPH free radical scavenging activity at 0.01 to 1 mM after 30 mins; type: physicochemical; settings: 0.5 h, 1000 µM; call rule not given here

SMILES | Activity
Cc1ccc(O)c(C(=O)O)c1 | Active
O=C(O)c1cc([N+](=O)[O-])ccc1O | Active
NC(=O)c1cc(O)ccc1O | Active
COc1ccc(O)c(C(=O)O)c1 | Active
O=C(O)c1cc(Cl)ccc1O [5-CHLOROSALICYLIC ACID] | Active
O=C(O)c1cc(O)ccc1O [GENTISIC ACID] | Active
Nc1ccc(O)c(C(=O)O)c1 [MESALAMINE] | Active
COC(=O)c1cc(O)ccc1O [METHYL 2,5-DIHYDROXYBENZOATE] | Active
O=C(O)c1ccccc1O [SALICYLIC ACID] | Active

test: Antioxidant activity assessed as DPPH free radical scavenging activity at 1 mM after 30 mins; type: physicochemical; settings: 0.5 h, 1000 µM

SMILES | Activity
CC(=O)Nc1ccc(O)c(C(N)=O)c1 | Active
